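All cell lines were grown in 96-well plates and treated with compound for 48 hours. Here, GI50 denotes the concentration required for 50% inhibition of growth. TGI denotes the concentration required for complete inhibition of growth.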
How the values were obtained:
Assay in all cases: growth of human tumour cells (NCI), 48 h
SF-268 CNS = system: SF-268 CNS
RPMI-8226 leukemia = system: RPMI-8226 leukemia
MDA-MB-231 breast = system: MDA-MB-231 breast
UACC-257 melanoma = system: UACC-257 melanoma
COLO 205 colon = system: COLO 205 colon
OVCAR-3 ovarian = system: OVCAR-3 ovarian
HCT-15 colon = system: HCT-15 colon
UACC-62 melanoma = system: UACC-62 melanoma
SNB-75 CNS = system: SNB-75 CNS
NCI-H23 lung = system: NCI-H23 lung

SMILES | TGI (SF-268 CNS) [µM] | TGI (RPMI-8226 leukemia) [µM] | TGI (MDA-MB-231 breast) [µM] | TGI (UACC-257 melanoma) [µM] | TGI (COLO 205 colon) [µM] | TGI (OVCAR-3 ovarian) [µM] | TGI (HCT-15 colon) [µM] | TGI (UACC-62 melanoma) [µM] | TGI (SNB-75 CNS) [µM] | TGI (NCI-H23 lung) [µM] | GI50 (UACC-62 melanoma) [µM] | GI50 (SF-268 CNS) [µM] | GI50 (RPMI-8226 leukemia) [µM] | GI50 (MDA-MB-231 breast) [µM] | GI50 (UACC-257 melanoma) [µM] | GI50 (COLO 205 colon) [µM] | GI50 (OVCAR-3 ovarian) [µM] | GI50 (HCT-15 colon) [µM] | GI50 (SNB-75 CNS) [µM] | GI50 (NCI-H23 lung) [µM]
COc1ccc(CC(CO)NC(=O)OCc2ccccc2)cc1Oc1ccc(CC(CO)NC(=O)OCc2ccccc2)cc1 (stereo unspecified) | 29.4 | 30.9 | 36 | 61.4 | 64.9 | 27.4 | > 100 | 29.5 | 11.7 | 33.8 |  |  |  |  |  |  |  |  |  | 
CC(=O)OC(C)c1cc2c(s1)C(=O)c1sccc1C2=O (stereo unspecified) | 4.09 | 4.78 | 16.8 | 0.441 | 3.59 | 8.71 | 2.38 | 3.05 | 2.63 | 0.546 | 1.38 |  |  |  |  |  |  |  |  | 
Oc1ccc(-c2nnc3sc(-c4ccc(F)cc4)nn23)cc1 | 62.6 | > 100 | 46.8 | > 100 | 34.1 | > 100 | > 100 | > 100 | 43.3 | 84.9 | 31.8 | 23 | 39 | 10.6 | > 100 | 16.9 | 18.6 | > 100 | 22.8 | 27.8

From PubChem BioAssay (NCI)
